Values after ≈ are worked out from the molar mass of the structure shown.
What was measured:
Format in all cases: functional
Staphylococcus aureus [1] = assay: Minimum inhibitory concentration against growth of Methicillin resistant […] aureus
Staphylococcus aureus [2] = assay: Minimum inhibitory concentration against growth of […] aureus (ATCC 29213)
Enterococcus faecalis [3] = assay: Minimum inhibitory concentration against growth of Enterococcus faecalis (ATCC 29212)
Enterococcus faecalis [4] = assay: Minimum inhibitory concentration against growth of vancomycin-resistant Enterococcus faecalis (ATCC 51299)

SMILES | MIC (Staphylococcus aureus [1]) | MIC (Staphylococcus aureus [2]) | MIC (Enterococcus faecalis [3]) | MIC (Enterococcus faecalis [4])
CC(C)C[C@@H](N)C(=O)N[C@H]1C(=O)N[C@@H](CC(N)=O)C(=O)N[C@H]2C(=O)N[C@H]3C(=O)N[C@H](C(=O)N[C@H](C(=O)NCC(=O)O)c4cc(O)cc(O)c4-c4cc3ccc4O)[C@H](O)c3ccc(c(Cl)c3)Oc3cc2cc(c3O[C@@H]2O[C@@H](CO)[C@@H](O)[C@H](O)[C@@H]2O[C@H]2C[C@](C)(Nc3ccc(Cl)cc3)[C@H](O)[C@H](C)O2)Oc2ccc(cc2Cl)[C@H]1O | 5 µg/mL (≈ 3.12 µM) | 5 µg/mL (≈ 3.12 µM) | 10 µg/mL (≈ 6.24 µM) | > 10 µg/mL
C/C=C/CN(C/C=C/C)[C@H](CC(C)C)C(=O)N[C@H]1C(=O)N[C@@H](CC(N)=O)C(=O)N[C@H]2C(=O)N[C@H]3C(=O)N[C@H](C(=O)N[C@H](C(=O)NCC(=O)O)c4cc(O)cc(O)c4-c4cc3ccc4O)[C@H](O)c3ccc(c(Cl)c3)Oc3cc2cc(c3O[C@@H]2O[C@@H](CO)[C@@H](O)[C@H](O)[C@@H]2O[C@H]2C[C@](C)(Nc3ccc(Cl)cc3)[C@H](O)[C@H](C)O2)Oc2ccc(cc2Cl)[C@H]1O | > 10 µg/mL | > 10 µg/mL | > 10 µg/mL | > 10 µg/mL
CCC(CC)N[C@H](CC(C)C)C(=O)N[C@H]1C(=O)N[C@@H](CC(N)=O)C(=O)N[C@H]2C(=O)N[C@H]3C(=O)N[C@H](C(=O)N[C@H](C(=O)NCC(=O)O)c4cc(O)cc(O)c4-c4cc3ccc4O)[C@H](O)c3ccc(c(Cl)c3)Oc3cc2cc(c3O[C@@H]2O[C@@H](CO)[C@@H](O)[C@H](O)[C@@H]2O[C@H]2C[C@](C)(Nc3ccc(-c4ccccc4)cc3)[C@H](O)[C@H](C)O2)Oc2ccc(cc2Cl)[C@H]1O | 2.5 µg/mL (≈ 1.46 µM) | 5 µg/mL (≈ 2.92 µM) | 5 µg/mL (≈ 2.92 µM) | > 10 µg/mL
CCCN(CCC)[C@H](CC(C)C)C(=O)N[C@H]1C(=O)N[C@@H](CC(N)=O)C(=O)N[C@H]2C(=O)N[C@H]3C(=O)N[C@H](C(=O)N[C@H](C(=O)NCC(=O)O)c4cc(O)cc(O)c4-c4cc3ccc4O)[C@H](O)c3ccc(c(Cl)c3)Oc3cc2cc(c3O[C@@H]2O[C@@H](CO)[C@@H](O)[C@H](O)[C@@H]2O[C@H]2C[C@](C)(Nc3ccc(-c4ccccc4)cc3)[C@H](O)[C@H](C)O2)Oc2ccc(cc2Cl)[C@H]1O | 5 µg/mL (≈ 2.89 µM) | 5 µg/mL (≈ 2.89 µM) | > 10 µg/mL | > 10 µg/mL
CC(C)C[C@@H](N)C(=O)N[C@H]1C(=O)N[C@@H](CC(N)=O)C(=O)N[C@H]2C(=O)N[C@H]3C(=O)N[C@H](C(=O)N[C@H](C(=O)NCC(=O)O)c4cc(O)cc(O)c4-c4cc3ccc4O)[C@H](O)c3ccc(c(Cl)c3)Oc3cc2cc(c3O[C@@H]2O[C@@H](CO)[C@@H](O)[C@H](O)[C@@H]2O[C@H]2C[C@](C)(Nc3ccc(-c4ccccc4)cc3)[C@H](O)[C@H](C)O2)Oc2ccc(cc2Cl)[C@H]1O | 5 µg/mL (≈ 3.04 µM) | 5 µg/mL (≈ 3.04 µM) | 5 µg/mL (≈ 3.04 µM) | > 10 µg/mL
CCCN[C@H](CC(C)C)C(=O)N[C@H]1C(=O)N[C@@H](CC(N)=O)C(=O)N[C@H]2C(=O)N[C@H]3C(=O)N[C@H](C(=O)N[C@H](C(=O)NCC(=O)O)c4cc(O)cc(O)c4-c4cc3ccc4O)[C@H](O)c3ccc(c(Cl)c3)Oc3cc2cc(c3O[C@@H]2O[C@@H](CO)[C@@H](O)[C@H](O)[C@@H]2O[C@H]2C[C@](C)(Nc3ccc(-c4ccccc4)cc3)[C@H](O)[C@H](C)O2)Oc2ccc(cc2Cl)[C@H]1O | 5 µg/mL (≈ 2.96 µM) | 5 µg/mL (≈ 2.96 µM) | 10 µg/mL (≈ 5.93 µM) | > 10 µg/mL
CCCN(CCC)[C@H](CC(C)C)C(=O)N[C@H]1C(=O)N[C@@H](CC(N)=O)C(=O)N[C@H]2C(=O)N[C@H]3C(=O)N[C@H](C(=O)N[C@H](C(=O)NCC(=O)O)c4cc(O)cc(O)c4-c4cc3ccc4O)[C@H](O)c3ccc(c(Cl)c3)Oc3cc2cc(c3O[C@@H]2O[C@@H](CO)[C@@H](O)[C@H](O)[C@@H]2O[C@H]2C[C@](C)(Nc3ccc(Cl)cc3)[C@H](O)[C@H](C)O2)Oc2ccc(cc2Cl)[C@H]1O | 5 µg/mL (≈ 2.96 µM) | 5 µg/mL (≈ 2.96 µM) | > 10 µg/mL | > 10 µg/mL
CCC(CC)N[C@H](CC(C)C)C(=O)N[C@H]1C(=O)N[C@@H](CC(N)=O)C(=O)N[C@H]2C(=O)N[C@H]3C(=O)N[C@H](C(=O)N[C@H](C(=O)NCC(=O)O)c4cc(O)cc(O)c4-c4cc3ccc4O)[C@H](O)c3ccc(c(Cl)c3)Oc3cc2cc(c3O[C@@H]2O[C@@H](CO)[C@@H](O)[C@H](O)[C@@H]2OC2C[C@](C)(NC(CC)CC)[C@H](O)[C@H](C)O2)Oc2ccc(cc2Cl)[C@H]1O (single isomer, unassigned) | > 10 µg/mL | > 10 µg/mL | > 10 µg/mL | > 10 µg/mL
CC(C)C[C@@H](N)C(=O)N[C@@H]1C(=O)N[C@@H](CC(N)=O)C(=O)N[C@H]2C(=O)N[C@H]3C(=O)N[C@H](C(=O)N[C@H](C(=O)O)c4cc(O)cc(O)c4-c4cc3ccc4O)[C@H](O)c3ccc(c(Cl)c3)Oc3cc2cc(c3O[C@@H]2O[C@H](CO)[C@@H](O)[C@H](O)[C@H]2O[C@H]2C[C@](C)(N)C(O)[C@H](C)O2)Oc2ccc(cc2Cl)[C@H]1O (stereo not given in full) [DEMETHYLVANCOMYCIN] | < 0.6 µg/mL | < 0.6 µg/mL | 2.5 µg/mL (≈ 1.74 µM) | > 10 µg/mL
CN[C@H](CC(C)C)C(=O)N[C@H]1C(=O)N[C@@H](CC(N)=O)C(=O)N[C@H]2C(=O)N[C@H]3C(=O)N[C@H](C(=O)N[C@H](C(=O)O)c4cc(O)cc(O)c4-c4cc3ccc4O)[C@H](O)c3ccc(c(Cl)c3)Oc3cc2cc(c3O[C@@H]2O[C@H](CO)[C@@H](O)[C@H](O)[C@H]2O[C@H]2C[C@](C)(N)[C@H](O)[C@H](C)O2)Oc2ccc(cc2Cl)[C@H]1O [VANCOMYCIN] | 1.25 µg/mL (≈ 0.863 µM) | 0.62 µg/mL (≈ 0.428 µM) | 2.5 µg/mL (≈ 1.73 µM) | > 10 µg/mL
